These results are taken from PMC5412686 (Biopharmaceutics & Drug Disposition, 2017).

In brackets after ≈: the same amount, converted by molar mass. Where two headings read alike, the source gives them in different places. Where only a bound is given, the exact number is not on record here.

The conditions of data set [1]: Humans, cited from earlier work; for CL: i.v.; for CL / F / Vss: ref Supplemental Table S2; for F: oral bioavailability; for Urinary excretion (f e): excreted unchanged in urine, ref Supplemental Table S1.
The nature of data set [2]: Solubility in fasted state simulated intestinal fluid. In kind it is physicochemical. To be noted: FaSSIF, 37 °C, pH 6.5, fassif, thermodynamic from solid.
For data set [3] the following is noted: Humans, fraction unbound in plasma; ref Supplemental Table S1; cited from earlier work.
The conditions of data set [4]: Rats, fraction unbound; ref Supplemental Table S1; cited from earlier work.
The conditions of data set [5]: ref Supplemental Table S1, cited from earlier work; for HBD: number of hydrogen bond donors; for log D: octanol/water at pH 7.4; for PSA: polar surface area.
The conditions of data set [6]: cited from earlier work.
Data set [7] can be described thus: Intrinsic metabolic clearance determined in human liver microsomes. The class given is in vitro ADME. To be noted: pH 7.4.
The conditions of data set [8]: human, Caco-2, pH 7.4, with cyclosporine A 10 μM.
In another data set the test system is Caco‐2 cells (TC7 clone). To be noted: Equation 11 from measured P‐Caco2.
For data set [9] the following is noted: Humans, blood/plasma ratio; ref Supplemental Table S1; cited from earlier work.
For data set [10] the following is noted: no medium marked (buffer pH 7.4); ref Supplemental Table S1; cited from earlier work.
The conditions of data set [11]: Rats, blood/plasma ratio; ref Supplemental Table S1; cited from earlier work.
Data set [12] can be described thus: Rat i.v. and oral pharmacokinetics from literature. In kind it is in vivo, rats. The note with it: liver blood flow 80 ml/min/kg.
Setting [13] is: Rats, i.v., ref Supplemental Table S2.

One may read the Vss as a proportionality between amount in the body and measured concentration, not a real space. The solubility is the concentration that dissolves in the medium under given conditions. Low readings indicate little dissolved substance, high ones much dissolved substance. One may read the log D as lipophilicity at a set pH, counting ionised and neutral species. As a reminder, the microsomal CLint is a measure of how fast metabolising enzymes remove a compound, apart from limits set by blood flow. Higher therefore signals rapid turnover. On to `CN(C)CCCN1c2ccccc2Sc2ccc(Cl)cc21` [Chlorpromazine], for which, in data set [1], the CL was 76.6 L/h, the F was 0.31 and the Vss is 8.88 L/kg. The molecule also had a solubility at 24 h in data set [2] of 814 µg/mL (≈ 2550 µM). In addition, the f up in data set [3] is 0.06. Also, the f up in data set [4] is reported as 0.01. Moreover, in data set [5], the HBD was 0, the “log D” value is recorded as 2.82, the PSA was 1.8 and the “Base pKa” value was 9.7. Moreover, the CL in [6] (rat, in vivo, iv) is 52 mL/min/kg. The F in data set [6] (rat, in vivo, po) was 0.02. In data set [7], the intrinsic clearance (microsomal CLint) at 1 μM was determined as 47 µL/min/mg.

The Papp is a coefficient for how fast a substance crosses the barrier. Lower therefore signals slow passage. Take `O=c1[nH]c2ccccc2n1CCCN1CCC(n2c(=O)[nH]c3cc(Cl)ccc32)CC1` [Domperidone]: in data set [1], the “Urinary excretion (f e)” value is < 1 % of dose and the CL is 42.06 L/h. This molecule also gave a Papp at 2 h, 1 μM in data set [8] of 38.6 ×10⁻⁶ cm/s. The “Calculated P eff from P‐Caco2” value in the data set on Caco‐2 cells (TC7 clone) was 4.3 10^−4 cm/s. In [2], the solubility at 24 h was 135 µg/mL (≈ 317 µM). Moreover, in data set [5], the HBD is 2, the “log D” value is given as 3.33 and the PSA is recorded as 66.8. Further, the CL in data set [6] (setting [13]) was 39.2 mL/min/kg. In addition, in data set [7], the microsomal CLint at 1 μM came to 166 µL/min/mg.

For `Cc1nnc2n1-c1ccc(Cl)cc1C(c1ccccc1)=NC2` [Alprazolam], the “Urinary excretion (f e)” value in [1] was 20 % of dose. Also, the CL in data set [1] is 3.11 L/h; in [6] (setting [13]), 133 mL/min/kg. Besides, the F in [1] was 0.96; in [6] (Rats, oral bioavailability, ref Supplemental Table S2), 0.28. The apparent permeability coefficient (Papp) at 2 h, 1 μM in [8] turned out to be 38.6 ×10⁻⁶ cm/s. For the same molecule, in the data set with Caco‐2 cells (TC7 clone), the “Calculated P eff from P‐Caco2” value is recorded as 4.3 10^−4 cm/s. In [4], the f up is given as 0.35. In addition, in [5], the HBD was 0. Moreover, in data set [5], the PSA is 33.3. Also, the results for the R b in [9] and in data set [11] were 0.78 and 0.81, respectively. Moreover, the “Solubility (Biorelevant media or Buffer, pH 7.4)” value in data set [10] was 40 mg/ml. For the same molecule, in [12], the “Rat blood clearance compared with liver blood flow” value is “exceeding maximum liver blood flow value”. The molecule further gave a microsomal CLint at 1 μM in [7] below 10 µL/min/mg.

In the case of `C=CCc1ccccc1OCC(O)CNC(C)C` (centres unmarked) [Alprenolol], in data set [1], the “Urinary excretion (f e)” value was 0.5 % of dose, the CL was 65.90 L/h, the F is recorded as 0.06 and the Vss was 2.99 L/kg. Also, the Papp at 2 h, 1 μM in data set [8] stood at 31.5 ×10⁻⁶ cm/s. The “Calculated P eff from P‐Caco2” value with Caco‐2 cells (TC7 clone) is 3.9 10^−4 cm/s. In addition, in data set [5], the HBD is 2, the “log D” value is reported as 1.34 and the PSA was 46.2. For the same molecule, the R b in data set [9] was 0.76. For the same molecule, the “Solubility (Biorelevant media or Buffer, pH 7.4)” value in data set [10] is 0.55 mg/ml. For the same molecule, in data set [11], the R b is on record as 1.71. The CL in data set [6] (setting [13]) is 79 mL/min/kg. The F in data set [6] (rat, in vivo, po) is 0.04. For the same molecule, the microsomal CLint at 1 μM in data set [7] was found to be 128 µL/min/mg.

`COC(=O)C1=C(C)NC(C)=C(C(=O)OCCN(C)Cc2ccccc2)C1c1cccc([N+](=O)[O-])c1` (centres unmarked) [Nicardipine] registered a solubility at 24 h in data set [2] of 227 µg/mL (≈ 473 µM). The f up in data set [4] is recorded as 0.01. In [5], the HBD was 1, the PSA was 114.0 and the “Base pKa” value is on record as 7.3. Further, the F in [6] (rat, in vivo, po) is 0.22.

In the case of `CCOC(=O)c1ncn2c1CN(C)C(=O)c1cc(F)ccc1-2` [Flumazenil], in data set [1], the “Urinary excretion (f e)” value was 0.5 % of dose, the CL is 72.06 L/h and the Vss is 0.97 L/kg. Also, the f up in [4] is given as 0.14. Also, in data set [5], the HBD was 0, the “log D” value is 0.87 and the PSA was 57.0. Further, in data set [9], the R b is 1. The “Solubility (Biorelevant media or Buffer, pH 7.4)” value in data set [10] is 0.13 mg/ml. For the same molecule, the CL in [6] (setting [13]) was 147 mL/min/kg. The F in [6] (rat, in vivo, po) was 0.28. Moreover, the “Rat blood clearance compared with liver blood flow” value in [12] is given as “exceeding maximum liver blood flow value”. Moreover, the microsomal CLint at 1 μM in [7] was 39 µL/min/mg.

Turning to `CN1CCN(C2=Nc3cc(Cl)ccc3Nc3ccccc32)CC1` [Clozapine], in [1], the “Urinary excretion (f e)” value is < 1 % of dose and the CL is 13.02 L/h. The Papp at 2 h, 1 μM in [8] amounted to 28.4 ×10⁻⁶ cm/s. For the same molecule, in the data set on Caco‐2 cells (TC7 clone), the “Calculated P eff from P‐Caco2” value is on record as 3.7 10^−4 cm/s. The molecule also gave a solubility at 24 h in data set [2] of 350 µg/mL (≈ 1070 µM). In addition, the f up in data set [3] is listed as 0.06. For the same molecule, the f up in [4] was 0.1. Further, in data set [5], the HBD is on record as 1, the “log D” value was 2.99 and the PSA is on record as 25.6.

The molecule `CC(C)(C)NC(=O)[C@@H]1C[C@@H]2CCCC[C@@H]2CN1C[C@@H](O)[C@H](Cc1ccccc1)NC(=O)[C@H](CC(N)=O)NC(=O)c1ccc2ccccc2n1` [Saquinavir] yielded a Papp at 2 h, 1 μM in data set [8] of 5 ×10⁻⁶ cm/s. Also, the “Calculated P eff from P‐Caco2” value with Caco‐2 cells (TC7 clone) is listed as 1.6 10^−4 cm/s. In addition, in data set [3], the f up is 0.03. Moreover, in data set [4], the f up is recorded as 0.05. Further, in data set [5], the HBD is reported as 5, the “log D” value is 5.05, the PSA is given as 178.8 and the “Base pKa” value is reported as 7.7. Also, in [10], the “Solubility (Biorelevant media or Buffer, pH 7.4)” value is reported as 2.22 mg/ml. Further, the CL in data set [6] (rat, in vivo, iv) was 88.5 mL/min/kg. The F in data set [6] (rat, in vivo, po) is 0.07.

Regarding `CCOC(=O)C1=C(C)NC(C)=C(C(=O)OC)C1c1cccc(Cl)c1Cl` (centres unmarked) [Felodipine], in data set [1], the “Urinary excretion (f e)” value is listed as < 1 % of dose and the F is 0.25. Also, the solubility at 24 h in data set [2] was 40 µg/mL (≈ 104 µM). In data set [4], the f up is 0.001. Moreover, in [5], the HBD was 1, the pH-dependent lipophilicity (log D) is 4.76, the PSA is 68.7 and the “Acid pKa” value is 5.1. Moreover, the R b in data set [9] is recorded as 0.7. Further, in data set [11], the R b is given as 0.68. Also, the F in data set [6] (rat, in vivo, po) was 0.1.

Turning to `CCOC(=O)C1=C(C)NC(C)=C(C(=O)OC)C1c1cccc([N+](=O)[O-])c1` (centres unmarked) [Nitrendipine], in [1], the “Urinary excretion (f e)” value was < 1 % of dose, the CL was 78.89 L/h, the F was 0.39 and the distribution volume (Vss) was 5.39 L/kg. Also, the solubility at 24 h in data set [2] is 8 µg/mL (≈ 22.2 µM). Further, in data set [5], the HBD was 1, the “log D” value is on record as 3.81 and the PSA is on record as 112.9. In addition, the R b in data set [9] is 1.46. Besides, the R b in [11] was 1.46. Further, the CL in data set [6] (setting [13]) was 16.5 mL/min/kg. Besides, the F in data set [6] (rat, in vivo, po) is recorded as 0.12.

Turning to `Cc1ncc2n1-c1ccc(Cl)cc1C(c1ccccc1F)=NC2` [Midazolam], in data set [1], the “Urinary excretion (f e)” value is reported as < 1 % of dose, the CL is 19.38 L/h, the F was 0.7 and the Vss is 0.74 L/kg. Moreover, in [5], the HBD is listed as 0, the “log D” value is given as 1.53, the PSA is reported as 20.1 and the “Base pKa” value is 5.6. Besides, in data set [9], the R b is 0.75. Further, the “Solubility (Biorelevant media or Buffer, pH 7.4)” value in data set [10] is given as 0.024 mg/ml. In data set [11], the R b is reported as 0.81. The CL in data set [6] (rat, in vivo, iv) is 46 mL/min/kg. In addition, the F in data set [6] (rat, in vivo, po) is on record as 0.25. The microsomal CLint at 1 μM in data set [7] was determined as 392 µL/min/mg.

`Cc1ccc(O)c([C@H](CCN(C(C)C)C(C)C)c2ccccc2)c1` [Tolterodine]: in data set [1], the CL is 27.72 L/h, the F is given as 0.72 and the Vss was 1.4 L/kg. For the same molecule, the Papp at 2 h, 1 μM in [8] came out at 26.2 ×10⁻⁶ cm/s. For the same molecule, in the data set with Caco‐2 cells (TC7 clone), the “Calculated P eff from P‐Caco2” value is reported as 3.6 10^−4 cm/s. Also, in [5], the HBD is on record as 1, the pH-dependent lipophilicity (log D) is reported as 2.38 and the PSA is on record as 24.1. For the same molecule, the “Solubility (Biorelevant media or Buffer, pH 7.4)” value in [10] is 12 mg/ml. Besides, in data set [6] (setting [13]), the CL is 166.7 mL/min/kg. In addition, the F in data set [6] (rat, in vivo, po) is on record as 0.02. Further, the “Rat blood clearance compared with liver blood flow” value in [12] is recorded as “exceeding maximum liver blood flow value”. In addition, the microsomal CLint at 1 μM in [7] was 115 µL/min/mg.

Take `COc1ccc2[nH]c([S+]([O-])Cc3ncc(C)c(OC)c3C)nc2c1` (centres unmarked) [Omeprazole]: in data set [1], the “Urinary excretion (f e)” value was 0 % of dose, the CL was 39.48 L/h and the F is given as 0.32. Further, in data set [5], the HBD is recorded as 1, the “log D” value was 2.23 and the PSA is on record as 71.0. Besides, the R b in data set [9] is 0.59. In addition, the “Solubility (Biorelevant media or Buffer, pH 7.4)” value in data set [10] was 0.035 mg/ml. Besides, the R b in [11] is given as 0.66. In [6] (setting [13]), the CL was 39.2 mL/min/kg. Also, in [6] (rat, in vivo, po), the F is given as 0.09. In data set [7], the microsomal CLint at 1 μM is below 10 µL/min/mg.
